Assays:
[1] = tested on: human patient-derived xenografts; test: Xenograft-derived chemical screen (Supplemental Table 3); assay type: cell-based; settings: 60 agent PPTI screen
Protocol: Three chemical screens were applied to the U23674 primary tumor cell culture. […] The target inhibition profile is a quantified description of the inhibitory properties of the compound on the numerous protein targets preset on the PPTI screen.
To screen the chemical agents, cell cultures were plated in 384 well plates at a seeding density of 2000 cells per well over graded concentrations of the numerous compounds. The chemical concentrations were between 10 nM and […] depending on the activity range of the compounds. The cells were incubated in DMEM supplemented with 1% penicillin streptomycin, and 10% fetal bovine serum for 72 hours. Chemical sensitivity was determined by an MTS cell viability assay after the 72 hour incubation period. The sensitivity responses at the different concentrations were used to determine the chemical IC50 using a hill curve fitting algorithm with variable hill slope coefficients.

DIPG neurospheres [2] = test: BrdU based cell proliferation ELISA assay; set-up: species or system mouse
Protocol: (§1) A bromodeoxyuridine (BrdU) based cell proliferation ELISA assay kit (Roche) was used for proliferation and processed according to the manufacturer's protocol. […] Viability was measured with CellTiter-Glo Luminescent Cell Viability Assay (# G7572, Promega) per manufacturer's protocol, luminescence values were obtained using Turner Biosystems Modulus Microplate luminometer (model 9300-062). All values are given as mean+/−SD of at least 3 independent experiments.

DIPG neurospheres [3] = test: Cellular viability assay (CellTiter-Glo Luminescent Cell Viability Assay); assay type: cell-based, mouse; settings: 48 hours
Protocol: as §1

AKT = test: Western blot analysis of phospho-Akt after IGF-1 stimulation; assay type: cell-based, mouse; settings: 4 hours of drug exposure at 1 μM and higher
Protocol: (§2) IGF-1R ligand was added at 10 nmol/L concentration for 15 minutes prior to cell collection. […] Protein concentrations of total cell lysates or total tissue lysates were determined using BCA assay kit (Pierce). Lysates were resolved by SDS-PAGE (Invitrogen) and transferred to nitrocellulose membranes (Bio-Rad Laboratories). […] All antibodies were purchased from Cell Signaling except Actin, which was purchased from Santa Cruz Biotech. Membranes were incubated with the appropriate labeled secondary antibodies, and protein was visualized and quantified using Li-Cor Biosciences Odyssey Infrared Imaging system (Li-Cor Biosciences). Inhibition was calculated by comparing the ratio of phosphorylation signals in untreated versus treated samples after normalization to actin. All values are given as mean+/−SD of at least 3 independent experiments.

IGF-1R = target: T1, IGF-1R (Mus musculus, UniProt Q60751); test: Western blot analysis of phospho-IGF-1R after IGF-1 stimulation; assay type: cell-based; settings: 4 hours of drug exposure at 1 μM and higher
T1 construct: endogenous in cells; host or cells: murine DIPG neurospheres (Ntv-a p53 deficient, PDGF-B driven)
T1 sequence (Q60751 31-1373): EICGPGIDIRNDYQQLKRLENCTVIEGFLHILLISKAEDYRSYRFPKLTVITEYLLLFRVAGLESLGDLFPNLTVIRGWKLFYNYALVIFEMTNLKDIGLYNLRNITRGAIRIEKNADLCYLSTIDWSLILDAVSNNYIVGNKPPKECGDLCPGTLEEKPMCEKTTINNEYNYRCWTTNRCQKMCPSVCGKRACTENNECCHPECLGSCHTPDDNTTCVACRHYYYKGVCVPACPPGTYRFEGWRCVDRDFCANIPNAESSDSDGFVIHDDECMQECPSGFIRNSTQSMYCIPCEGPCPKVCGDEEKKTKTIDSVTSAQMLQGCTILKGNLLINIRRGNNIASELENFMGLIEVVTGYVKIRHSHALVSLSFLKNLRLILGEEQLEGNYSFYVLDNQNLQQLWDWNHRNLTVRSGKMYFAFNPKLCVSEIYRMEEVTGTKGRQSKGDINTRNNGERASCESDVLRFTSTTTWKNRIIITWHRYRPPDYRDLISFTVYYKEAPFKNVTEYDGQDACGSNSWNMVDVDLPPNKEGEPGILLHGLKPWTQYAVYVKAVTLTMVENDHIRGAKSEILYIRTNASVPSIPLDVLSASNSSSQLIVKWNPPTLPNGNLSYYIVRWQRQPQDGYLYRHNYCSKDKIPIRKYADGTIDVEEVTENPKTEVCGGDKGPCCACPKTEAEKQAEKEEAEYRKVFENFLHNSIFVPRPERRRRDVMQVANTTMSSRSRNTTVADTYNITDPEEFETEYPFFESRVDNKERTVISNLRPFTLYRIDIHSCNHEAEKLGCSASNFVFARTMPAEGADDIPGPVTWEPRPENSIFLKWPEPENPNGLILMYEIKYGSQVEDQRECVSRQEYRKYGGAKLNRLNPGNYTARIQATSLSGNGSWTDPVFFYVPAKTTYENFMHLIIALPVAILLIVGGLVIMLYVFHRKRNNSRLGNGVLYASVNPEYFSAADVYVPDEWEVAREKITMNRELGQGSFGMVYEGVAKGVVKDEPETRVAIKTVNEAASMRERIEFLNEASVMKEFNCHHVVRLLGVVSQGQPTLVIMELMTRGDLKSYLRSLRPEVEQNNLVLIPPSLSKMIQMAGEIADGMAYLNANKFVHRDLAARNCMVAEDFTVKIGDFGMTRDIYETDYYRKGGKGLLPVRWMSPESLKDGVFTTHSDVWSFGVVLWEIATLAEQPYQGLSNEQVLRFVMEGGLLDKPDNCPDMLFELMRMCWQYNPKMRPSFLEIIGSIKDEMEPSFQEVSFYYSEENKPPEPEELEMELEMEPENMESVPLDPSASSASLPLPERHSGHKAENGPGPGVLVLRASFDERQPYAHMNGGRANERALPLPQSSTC
Protocol: as §2

U23674 cells = test: Four-arm orthotropic allograft study, survival; assay type: in vivo, mouse; settings: 50 mg/kg OSI-906, 150 mg/kg GDC-0941, oral gavage; compared to vehicle and other arms
Protocol: This engraftment was performed after damaging the right leg via cardiotoxin as previously described. Treatment commenced two days after engraftment. Dosing schedule was once daily by oral gavage up to day 5, at which time dosing was performed every other day. The endpoint for the study and survival analysis was tumor volume=1.4 cc.

DIPG neurospheres [4] = test: cells
Protocol: Primary cultures of DIPG neurospheres were added to 384 well plates pre-plated with 60 known drugs in an increasing gradient of concentrations. […] To complete this drug screen, primary cultures of nestin […] 53 deficient DIPG neurospheres were added to plates with 60 known drug samples in an increasing gradient of concentrations.

C[C@]1(O)C[C@@H](c2nc(-c3ccc4ccc(-c5ccccc5)nc4c3)c3c(N)nccn32)C1 [OSI-906]
IC50 Value [1]: >conc tested | concentration giving significant inhibition of proliferation (DIPG neurospheres [2]): ≥ 1 µM | IC50 (DIPG neurospheres [2]; Mus musculus, 48 hours, BrdU assay): 2500 nM | concentration giving significant reduction of viability (DIPG neurospheres [3]): ≥ 1 µM | IC50 (DIPG neurospheres [3]; Mus musculus, CellTiter-Glo, read-out: IC50, viability / cytotoxic effects): 2400 nM | reduction in pAKT expression (AKT): 69% | reduction in pIGF-1R (IGF-1R): 73% | survival of mice (endpoint tumor volume 1.4 cc) (U23674 cells): no better than survival of mice only treated with vehicle | IC50 (DIPG neurospheres [4]; 48 h, read-out: In Vitro Absolute IC50): 1740 nM | viability at 10 µM (DIPG neurospheres [4]; read-out: cell viability (cytocidal)): < 15%

Reference: patent US20150269307A1, “TARGET INHIBITION MAP SYSTEM FOR COMBINATION THERAPY DESIGN AND METHODS OF USING SAME” (Texas Tech University System, priority 2014, published 2015)
